Measurements reported in patent publication US8227620B2, “Pharmaceutical compounds” (Neuroscienze Pharmaness S.C. A.R.L., priority 2004, dated 2012).

How the values were obtained:
CB2 receptors = target: T1, CB2 receptors (Rattus norvegicus, UniProt Q9QZN9); assay: Radioreceptor binding, [3H]-CP-55,940 displacement, rat spleen membranes; conditions: 1 nM [3H]-CP55,940
T1 construct: the brain in toto (cerebellum excluded) and the spleen were rapidely dissected; from tissue; host or cells: rat spleen membranes
T1 sequence (Q9QZN9 1-360): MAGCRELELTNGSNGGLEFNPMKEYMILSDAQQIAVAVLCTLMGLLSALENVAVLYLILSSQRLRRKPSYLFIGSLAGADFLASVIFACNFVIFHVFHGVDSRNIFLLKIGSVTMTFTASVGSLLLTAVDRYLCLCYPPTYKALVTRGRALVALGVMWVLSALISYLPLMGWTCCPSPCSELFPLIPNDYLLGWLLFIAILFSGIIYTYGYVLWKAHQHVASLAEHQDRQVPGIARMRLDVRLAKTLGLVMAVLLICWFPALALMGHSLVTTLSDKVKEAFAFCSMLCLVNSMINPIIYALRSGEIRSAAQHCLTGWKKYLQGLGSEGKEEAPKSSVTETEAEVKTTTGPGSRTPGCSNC
Text: The receptorial binding technique allows indeed to establish if and with what affinity and specificity a determined compound binds itself to a particular receptor. To evaluate the affinity of a determined compound towards a particular receptor, a particular preparation of the tissue wherein the receptors are present is used and the tested compound is made to compete with another compound, treated so as to make it radioactive and of which the affinity for the receptor is known. […] The reading of the radioactivity present in the receptor-compound complex allows furthermore to precisely calculate the compound amount bound to the receptor. By this method it is therefore possible to rapidely identify the affinity of a new compound towards a specific receptor and thus to make predictions on its pharmacological activity. By repeating the same experimental scheme it is possible to evaluate the affinity of the compound towards other kinds of receptors and thus establish the specificity degree.
Food and water were available ad libitum.
The animals were sacrificed by cervical dislocation, the brain in toto (cerebellum excluded) and the spleen were rapidely dissected and maintained in ice.
The tissue was homogenized in 15 volumes (weight/volume) of TME buffer (50 mM Tris, 1 mM EDTA e 3 mM MgCl2, pH 7.4) by an Ultra-Turrax and centrifuged for 10 minutes at 1086×g in a centrifuge cooled at 4° C. The resulting supernatant was centrifuged at 45,000×g for 30 min at 4° C. by using a Beckman SW41 rotor and the final pellet was resuspended in 50 volumes of TME.
The obtained membranes (50-80 μg of proteins) were incubated in the presence of 1 nM di [^3H]-CP55,940 for 1 h at 30° C. in a final volume of 0.5 ml of TME buffer containing 5 mg/ml of bovine serum albumin (BSA). The non specific binding was measured in the presence of CP55,940 at the 1 μM concentration. […]
The radioactivity present in the filters was measured by a scintillator spectrophotometer (Tricarb 2100, Packard, Meridien, USA). […]

CB1 receptors = CB1 receptors (Rattus norvegicus, UniProt P20272); assay: Antagonism of WIN 55,212-2 induced hypothermia in vivo; conditions: for capability to pass the hemato-encephalic barrier: concluded from the hypothermia test; for antagonism of the body temperature reduction induced by WIN 55,212-2: i.p., compound 30 minutes before WIN 55,212-2 (3 mg/kg)
Procedure: The rectal temperature in the rat was determined by an electronic thermometer inserted at a 2 mm depth. The measurements were carried out on rats acclimated for one hour. The rectal temperature was determined before and after (from 30 to 120 minutes) the i.p. administration of the compound to be tested.
Each test was repeated on ten animals; the reported results are the average of the results obtained with the ten animals.

[1] = WIN 55,212-2 (3 mg/kg) + compound 0.1 mg/kg, 0 min from WIN administration
[2] = WIN 55,212-2 (3 mg/kg) + compound 0.1 mg/kg, 15 min
[3] = WIN 55,212-2 (3 mg/kg) + compound 0.1 mg/kg, 30 min
[4] = WIN 55,212-2 (3 mg/kg) + compound 0.1 mg/kg, 60 min
[5] = WIN 55,212-2 (3 mg/kg) + compound 0.1 mg/kg, 90 min
[6] = WIN 55,212-2 (3 mg/kg) + compound 0.1 mg/kg, 120 min
[7] = WIN 55,212-2 (3 mg/kg) + compound 0.5 mg/kg, 0 min from WIN administration
[8] = WIN 55,212-2 (3 mg/kg) + compound 0.5 mg/kg, 15 min
[9] = WIN 55,212-2 (3 mg/kg) + compound 0.5 mg/kg, 30 min
[10] = WIN 55,212-2 (3 mg/kg) + compound 0.5 mg/kg, 60 min
[11] = WIN 55,212-2 (3 mg/kg) + compound 0.5 mg/kg, 90 min
[12] = WIN 55,212-2 (3 mg/kg) + compound 0.5 mg/kg, 120 min
[13] = WIN 55,212-2 (3 mg/kg) + compound 1.0 mg/kg, 0 min from WIN administration
[14] = WIN 55,212-2 (3 mg/kg) + compound 1.0 mg/kg, 15 min
[15] = WIN 55,212-2 (3 mg/kg) + compound 1.0 mg/kg, 30 min
[16] = WIN 55,212-2 (3 mg/kg) + compound 1.0 mg/kg, 60 min
[17] = WIN 55,212-2 (3 mg/kg) + compound 1.0 mg/kg, 90 min
[18] = WIN 55,212-2 (3 mg/kg) + compound 1.0 mg/kg, 120 min
[19] = WIN 55,212-2 (3 mg/kg) + compound 3.0 mg/kg, 0 min from WIN administration
[20] = WIN 55,212-2 (3 mg/kg) + compound 3.0 mg/kg, 15 min
[21] = WIN 55,212-2 (3 mg/kg) + compound 3.0 mg/kg, 30 min
[22] = WIN 55,212-2 (3 mg/kg) + compound 3.0 mg/kg, 60 min
[23] = WIN 55,212-2 (3 mg/kg) + compound 3.0 mg/kg, 90 min
[24] = WIN 55,212-2 (3 mg/kg) + compound 3.0 mg/kg, 120 min
[25] = WIN 55,212-2 (3 mg/kg) + compound 6.0 mg/kg, 0 min from WIN administration
[26] = WIN 55,212-2 (3 mg/kg) + compound 6.0 mg/kg, 15 min
[27] = WIN 55,212-2 (3 mg/kg) + compound 6.0 mg/kg, 30 min
[28] = WIN 55,212-2 (3 mg/kg) + compound 6.0 mg/kg, 60 min
[29] = WIN 55,212-2 (3 mg/kg) + compound 6.0 mg/kg, 90 min
[30] = WIN 55,212-2 (3 mg/kg) + compound 6.0 mg/kg, 120 min

Sequence of CB1 receptors (P20272 whole entry): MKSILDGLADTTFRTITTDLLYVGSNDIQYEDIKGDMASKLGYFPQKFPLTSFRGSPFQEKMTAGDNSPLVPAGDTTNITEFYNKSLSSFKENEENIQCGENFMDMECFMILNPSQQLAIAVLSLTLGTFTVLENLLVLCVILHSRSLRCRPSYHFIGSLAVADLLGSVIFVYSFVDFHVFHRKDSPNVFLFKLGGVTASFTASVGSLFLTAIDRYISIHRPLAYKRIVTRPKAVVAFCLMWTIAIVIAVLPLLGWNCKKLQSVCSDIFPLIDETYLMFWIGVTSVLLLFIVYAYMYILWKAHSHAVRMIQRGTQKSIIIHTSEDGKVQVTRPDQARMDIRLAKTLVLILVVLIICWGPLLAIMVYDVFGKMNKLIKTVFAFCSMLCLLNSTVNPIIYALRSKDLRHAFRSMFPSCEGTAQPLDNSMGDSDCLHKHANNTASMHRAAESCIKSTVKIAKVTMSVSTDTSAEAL

Compound	Ki (CB2 receptors) [nM]	Body temperature (° C.) (CB1 receptors; [1]) [°C]	Body temperature (° C.) (CB1 receptors; [2]) [°C]	Body temperature (° C.) (CB1 receptors; [3]) [°C]	Body temperature (° C.) (CB1 receptors; [4]) [°C]	Body temperature (° C.) (CB1 receptors; [5]) [°C]	Body temperature (° C.) (CB1 receptors; [6]) [°C]	Body temperature (° C.) (CB1 receptors; [7]) [°C]	Body temperature (° C.) (CB1 receptors; [8]) [°C]	Body temperature (° C.) (CB1 receptors; [9]) [°C]	Body temperature (° C.) (CB1 receptors; [10]) [°C]	Body temperature (° C.) (CB1 receptors; [11]) [°C]	Body temperature (° C.) (CB1 receptors; [12]) [°C]	Body temperature (° C.) (CB1 receptors; [13]) [°C]	Body temperature (° C.) (CB1 receptors; [14]) [°C]	Body temperature (° C.) (CB1 receptors; [15]) [°C]	Body temperature (° C.) (CB1 receptors; [16]) [°C]	Body temperature (° C.) (CB1 receptors; [17]) [°C]	Body temperature (° C.) (CB1 receptors; [18]) [°C]	Body temperature (° C.) (CB1 receptors; [19]) [°C]	also measured
Cc1c(C(=O)NN2CCCCC2)nn(-c2ccc(Cl)cc2Cl)c1-c1ccc(Cl)s1 [Example 3.1b, N-piperidinyl-5-(5-Chloro-thiophen-2-yl)-1-(2′,4′-dichloro-phenyl)-4-methyl-1H-pyrazol-3-carboxamide]	476 ± 3	38.5	35.1	33.8	35.3	36.9	37.3	38.1	35.8	34.5	35.7	36.7	37.3	38.3	36.1	35.7	36.8	37.8	37.9	38.4	Body temperature (° C.) (CB1 receptors; [20]): 36.1 °C; Body temperature (° C.) (CB1 receptors; [21]): 35.7 °C; Body temperature (° C.) (CB1 receptors; [22]): 36.8 °C; Body temperature (° C.) (CB1 receptors; [23]): 37.8 °C; Body temperature (° C.) (CB1 receptors; [24]): 37.9 °C; Body temperature (° C.) (CB1 receptors; [25]): 38.6 °C; Body temperature (° C.) (CB1 receptors; [26]): 37.7 °C; Body temperature (° C.) (CB1 receptors; [27]): 37.9 °C; Body temperature (° C.) (CB1 receptors; [28]): 37.9 °C; Body temperature (° C.) (CB1 receptors; [29]): 38.2 °C; Body temperature (° C.) (CB1 receptors; [30]): 37.9 °C; capability to pass the hemato-encephalic barrier (CB1 receptors): capable to pass the hemato-encephalic barrier; CB1 antagonist behaviour in vivo (CB1 receptors; hypothermia test): shows a CB1 antagonist behaviour; antagonism of the body temperature reduction induced by WIN 55,212-2 (CB1 receptors): able to antagonize the effect of WIN 55,212-2
N-pyrrolidinyl-5-(5-Chloro-thiophen-2-yl)-1-(2,4′-dichloro-phenyl)-4-methyl-1H-pyrazol-3-carboxamide [Example 3.1d]	699 ± 21	38.1	35.3	33.8	35.6	36.5	37.2	38.1	35.7	34.4	35.0	36.3	37.2	37.9	36.5	34.7	35.8	36.7	37.1	38.4	Body temperature (° C.) (CB1 receptors; [20]): 37.0 °C; Body temperature (° C.) (CB1 receptors; [21]): 36.8 °C; Body temperature (° C.) (CB1 receptors; [22]): 37.3 °C; Body temperature (° C.) (CB1 receptors; [23]): 37.7 °C; Body temperature (° C.) (CB1 receptors; [24]): 37.6 °C; Body temperature (° C.) (CB1 receptors; [25]): 37.8 °C; Body temperature (° C.) (CB1 receptors; [26]): 36.9 °C; Body temperature (° C.) (CB1 receptors; [27]): 36.9 °C; Body temperature (° C.) (CB1 receptors; [28]): 37.2 °C; Body temperature (° C.) (CB1 receptors; [29]): 37.8 °C; Body temperature (° C.) (CB1 receptors; [30]): 37.9 °C; capability to pass the hemato-encephalic barrier (CB1 receptors): able to pass the hemato-encephalic barrier; antagonism of the body temperature reduction induced by WIN 55,212-2 (CB1 receptors): able to antagonize the effect of WIN 55,212-2
